Measured values from patent publication US8192962B2, “Processes for detecting toxic substances” (Daikin Industries, Ltd., priority 2001, dated 2012).

System: Genes belonging to other category
Experiment: DNA chip mRNA expression in yeast, genes belonging to other category (Table 9)
Type: cell-based, Saccharomyces cerevisiae S288C
In short: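 Value is the scanned fluorescence intensity ratio of exposed versus chemical-free cells. Log-phase S288C yeast in YPD at 25° C. received one toxic substance for two hours, dosed to slow growth without killing; Cy3/Cy5-labeled cDNA from oligo-dT-purified mRNA was hybridized to a whole-genome chip at 65° C.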

Measured: The level of expressed mRNA in the presence of chemical substance/The level of expressed mRNA in the absence of chemical substance

[Cl][Hg][Cl] [(3), HgCl2]
0.6: yeast gene YDR115W | yeast gene YFL043C | yeast gene YHR071W | yeast gene YLR136C | yeast gene YLR429W | yeast gene YOR261C | yeast gene YPL149W
4.9: yeast gene YLR356W
5.7: yeast gene YBR214W
1.2: yeast gene YAR010C | yeast gene YCR088W | yeast gene YDR104C | yeast gene YDR388W | yeast gene YIL123W | yeast gene YMR275C | yeast gene YOR157C
1.4: yeast gene YKL013C | yeast gene YMR226C | yeast gene YOR036W | yeast gene YOR198C
2.1: yeast gene YHR142W
8.1: yeast gene YKL096W
0.9: yeast gene YBL041W | yeast gene YCR071C | yeast gene YGL229C | yeast gene YGR257C | yeast gene YMR314W
2.6: yeast gene YOR383C
14.4: yeast gene YLR327C
1.9: yeast gene YGL158W | yeast gene YOR185C
0.8: yeast gene YHR004C | yeast gene YJR086W | yeast gene YOR132W | yeast gene YOR259C
5.1: yeast gene YNL007C
2.4: yeast gene YKL039W | yeast gene YLR120C
1.0: yeast gene YCL027W | yeast gene YDL008W | yeast gene YDR315C | yeast gene YDR432W | yeast gene YER039C | yeast gene YER107C | yeast gene YGR213C | yeast gene YJL089W | yeast gene YLR250W | yeast gene YLR362W | yeast gene YMR219W | yeast gene YOL013C | yeast gene YOL164W
1.5: yeast gene YDR084C | yeast gene YDR510W | yeast gene YEL066W | yeast gene YFL022C | yeast gene YGR189C | yeast gene YIL140W | yeast gene YMR276W
4.2: yeast gene YPL154C
2.5: yeast gene YJL073W
0.5: yeast gene YBL005W-A | yeast gene YCL020W | yeast gene YER130C | yeast gene YNR010W | yeast gene YPL089C | yeast gene YPL109C
1.3: yeast gene YBL078C | yeast gene YDR481C | yeast gene YGR136W | yeast gene YJL116C | yeast gene YMR004W | yeast gene YMR094W | yeast gene YNL006W | yeast gene YOR124C | yeast gene YPR103W | yeast gene YPR108W
6.8: yeast gene YHR139C
2.0: yeast gene YKL008C
3.4: yeast gene YJR004C
2.9: yeast gene YLR391W
1.7: yeast gene YEL042W | yeast gene YNL333W | yeast gene YOR117W
8.8: yeast gene YLR178C
12.0: yeast gene YCR004C
0.7: yeast gene YDR358W | yeast gene YFL028C | yeast gene YNR069C
1.6: yeast gene YDR085C
1.1: yeast gene YBL043W | yeast gene YDL238C | yeast gene YKL165C | yeast gene YKL193C | yeast gene YOR181W | yeast gene YOR288C | yeast gene YOR355W
0.4: yeast gene YDR259C | yeast gene YNL093W
2.2: yeast gene YDR055W | yeast gene YMR104C
